Our source for the TGI values is PubChem BioAssay (NCI).

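Cells were grown in 96-well plates and exposed to each compound for 48 hours at five concentrations; endpoints were interpolated linearly between bracketing concentrations, or set to the highest concentration if not reached. TGI denotes the concentration required for complete inhibition of growth.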

Some test systems named below: A549 NSCLC; COLO 205 colon; HT29 colon; K-562 leukemia; LOX IMVI melanoma; M14 melanoma; MDA-MB-231 breast; MDA-N; NCI-H522 lung; PC-3 prostate; SF-295 CNS; SF-539 CNS; SK-MEL-28 melanoma; SW-620 colon; TK-10 renal.
What all share (experiment): DTP human tumour cell line panel, 48 h

For orientation: TGI means the concentration giving total growth inhibition. A low value points to more potent growth arrest. For `CSC1=C(C)S/C(=C\c2ccc(/C=C3\SC(C)=C(SC)S3)cc2)S1`, the TGI with A549 NSCLC, with COLO 205 colon, in the assay on HT29 colon, with K-562 leukemia, with LOX IMVI melanoma and with M14 melanoma was > 100 µM in each case. Besides, the TGI was > 100 µM with MDA-MB-231 breast; > 100 µM in the assay on MDA-N; > 100 µM in the assay with NCI-H522 lung; > 100 µM with PC-3 prostate; > 100 µM with SF-295 CNS; 92.5 µM in the assay on SF-539 CNS. The total growth inhibition concentration (TGI) with SK-MEL-28 melanoma, in the assay with SW-620 colon and in the assay with TK-10 renal was > 100 µM throughout.
In the case of `CCC(C)C1=C(O)[N+]2([O-])Oc3ccc(-c4c(O)c(O)c(-c5ccc(O)cc5)c(OC(C)=O)c4OC(C)=O)cc3OC2(C(C)CC)C(=O)N1O` (stereo not drawn), the TGI in the assay with A549 NSCLC, with COLO 205 colon, in the assay on HT29 colon, in the assay with K-562 leukemia, in the assay with LOX IMVI melanoma and in the assay with M14 melanoma was > 50 µM in each case. Besides, the concentration for total growth inhibition (TGI) in the assay on MDA-MB-231 breast, in the assay with MDA-N, in the assay on NCI-H522 lung, in the assay on PC-3 prostate, in the assay with SF-295 CNS and with SF-539 CNS was > 50 µM in each case. The total growth inhibition concentration (TGI) in the assay with SK-MEL-28 melanoma, in the assay on SW-620 colon and with TK-10 renal was > 50 µM each time.
For the compound `COC(=O)/N=[N+](\[O-])C(c1ccc(Cl)cc1)c1ccc(Cl)cc1`, the total growth inhibition concentration (TGI) in the assay with A549 NSCLC is > 100 µM; in the assay with COLO 205 colon it was 59.1 µM; with HT29 colon, > 100 µM; in the assay with K-562 leukemia, > 100 µM; with LOX IMVI melanoma, 43.6 µM; with M14 melanoma, > 100 µM. Also, the TGI in the assay with MDA-MB-231 breast was 77.1 µM; with MDA-N, > 100 µM; in the assay on NCI-H522 lung, > 100 µM; in the assay on PC-3 prostate, > 100 µM; in the assay with SF-539 CNS, > 100 µM; in the assay on SK-MEL-28 melanoma, > 100 µM. Besides, the TGI in the assay on SW-620 colon and in the assay with TK-10 renal was > 100 µM in each case.
For the compound `CC(C)C(=O)CC(Sc1ccc(N)cc1)c1ccccc1` (stereo not drawn), the TGI is > 100 µM in the assay with A549 NSCLC; > 100 µM with COLO 205 colon; > 100 µM with HT29 colon; > 100 µM with K-562 leukemia; 33.8 µM in the assay with LOX IMVI melanoma; > 100 µM in the assay on M14 melanoma. The concentration for total growth inhibition (TGI) is 60.5 µM in the assay on MDA-MB-231 breast; 35.5 µM in the assay with MDA-N; 30.2 µM in the assay with NCI-H522 lung; > 100 µM in the assay with PC-3 prostate; > 100 µM in the assay on SF-295 CNS; 63.5 µM with SF-539 CNS. In addition, the concentration for total growth inhibition (TGI) in the assay on SK-MEL-28 melanoma is > 100 µM; in the assay with SW-620 colon, 34.8 µM; in the assay with TK-10 renal, > 100 µM.
Regarding `O=S(=O)(O)c1ccc(N=Nc2c(O)ccc3ccccc23)cc1`, the concentration for total growth inhibition (TGI) in the assay on A549 NSCLC, in the assay with COLO 205 colon, in the assay with HT29 colon, in the assay with K-562 leukemia, with LOX IMVI melanoma and in the assay with M14 melanoma was > 100 µM throughout. Further, the TGI in the assay on MDA-MB-231 breast, in the assay with MDA-N, with NCI-H522 lung, with PC-3 prostate, in the assay with SF-295 CNS and with SF-539 CNS was > 100 µM each time. The TGI with SK-MEL-28 melanoma, in the assay with SW-620 colon and in the assay on TK-10 renal was > 100 µM throughout.
Consider `CCOC(=O)Nn1cnnc1Cc1ccccc1`, for which the TGI in the assay with A549 NSCLC, in the assay on COLO 205 colon, in the assay on HT29 colon, with K-562 leukemia, with LOX IMVI melanoma and with M14 melanoma was > 100 µM throughout. The TGI in the assay on MDA-MB-231 breast, with MDA-N, in the assay on NCI-H522 lung, with PC-3 prostate, with SF-295 CNS and in the assay with SF-539 CNS was > 100 µM throughout. In addition, the total growth inhibition concentration (TGI) in the assay with SW-620 colon and in the assay on TK-10 renal was > 100 µM in each case.
Regarding `Cc1ccc([N+](=O)[O-])cc1S(=O)(=O)Nc1ccc(C2=NOC(c3ccccc3)C2)cc1` (stereo not drawn), the TGI in the assay with A549 NSCLC is > 100 µM; with COLO 205 colon it was 33.8 µM; with HT29 colon, 43.8 µM; in the assay with K-562 leukemia, 5.14 µM; in the assay on LOX IMVI melanoma, 24.3 µM; in the assay with M14 melanoma, 18.1 µM. Moreover, the TGI in the assay with MDA-MB-231 breast is 88.3 µM; with MDA-N, 6.38 µM; in the assay with NCI-H522 lung it was 30.1 µM; with PC-3 prostate, > 100 µM; with SF-295 CNS, 19.7 µM; in the assay on SF-539 CNS, 33.4 µM. Also, the TGI with SK-MEL-28 melanoma is > 100 µM; with SW-620 colon, 59.1 µM.
On to `CCCCC1=C(C(=O)N2CCOCC2)C2(OCCO2)C1Cl` (stereo not drawn), for which the concentration for total growth inhibition (TGI) is 48.9 µM in the assay on A549 NSCLC; 54.3 µM in the assay on COLO 205 colon; 78.6 µM in the assay with HT29 colon; > 100 µM in the assay on LOX IMVI melanoma; 33.9 µM in the assay on M14 melanoma; > 100 µM in the assay with MDA-MB-231 breast. In addition, the concentration for total growth inhibition (TGI) with MDA-N is 39.7 µM; in the assay with NCI-H522 lung, 99.3 µM; with PC-3 prostate, > 100 µM; in the assay on SF-295 CNS, > 100 µM; in the assay on SF-539 CNS it was 37.8 µM; with SK-MEL-28 melanoma, 53.6 µM. Besides, the TGI was 89.5 µM in the assay on SW-620 colon and > 100 µM in the assay on TK-10 renal.
As for `CC1=NN(c2cccc(Cl)c2)C(=N/c2nc3ccccc3s2)/C1=C\c1ccccc1O`, the TGI with HT29 colon was 97.8 µM; in the assay with K-562 leukemia, > 100 µM; in the assay with LOX IMVI melanoma, 57.6 µM; with M14 melanoma, > 100 µM; in the assay with MDA-MB-231 breast, 64.4 µM; in the assay on MDA-N, 93.5 µM. Besides, the concentration for total growth inhibition (TGI) with NCI-H522 lung was 49.4 µM; with PC-3 prostate, 48.7 µM; with SF-295 CNS, 86.2 µM; in the assay on SF-539 CNS, > 100 µM; in the assay on SK-MEL-28 melanoma it was 76.3 µM; with SW-620 colon, > 100 µM. In addition, in the assay on TK-10 renal, the concentration for total growth inhibition (TGI) was > 100 µM.
`Cc1nc2ccc(S(=O)(=O)Nc3ccccn3)cc2c(=O)n1NS(=O)(=O)c1ccccn1`: the TGI in the assay on COLO 205 colon, in the assay on HT29 colon, with K-562 leukemia, with LOX IMVI melanoma, with M14 melanoma and in the assay on MDA-MB-231 breast was > 100 µM each time. Besides, the TGI in the assay with MDA-N, with NCI-H522 lung, in the assay with PC-3 prostate, in the assay with SF-295 CNS, in the assay on SF-539 CNS and in the assay with SK-MEL-28 melanoma was > 100 µM throughout. Also, the TGI in the assay on SW-620 colon and in the assay with TK-10 renal was > 100 µM in each case.
